Laboratory results taken from patent publication US8541363B2, “Pyruvamide compounds as inhibitors of dust mite group 1 peptidase allergen and their use” (St George's Hosptial Medical School, priority 2010, dated 2013).
Where two headings read alike, the source gives them in different places.

Biological target: Der p 1 (Dermatophagoides pteronyssinus (European house dust mite), UniProt P08176)
Assay: Der p 1 enzyme activity assay (FRET fluorogenic substrate)
Assay type: biochemical
[1] = threshold stated in text, read-out: Der p 1 IC50

Sequence of Der p 1 (P08176 99-320): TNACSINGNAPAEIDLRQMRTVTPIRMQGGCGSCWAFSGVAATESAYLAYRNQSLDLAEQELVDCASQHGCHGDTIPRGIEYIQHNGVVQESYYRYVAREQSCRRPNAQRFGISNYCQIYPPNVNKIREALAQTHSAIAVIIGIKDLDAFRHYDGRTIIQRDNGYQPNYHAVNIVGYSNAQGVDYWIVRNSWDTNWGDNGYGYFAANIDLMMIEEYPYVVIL

| Structure (SMILES) | IC50 [1] [µM] | also measured |
| --- | --- | --- |
| CC(C)[C@H](NC(=O)[C@H](C)NC(=O)[C@@H](Cc1ccc(F)c(F)c1)NC(=O)c1ccccc1)C(=O)C(=O)NC1CCCCC1 [PVA-028] | < 0.2 |  |
| CC(=O)Nc1cc(C(=O)N[C@H](C(=O)N[C@@H](C)C(=O)N[C@H](C(=O)C(=O)NC2CCCCC2)C(C)C)C(C)(C)C)ccn1 [PVA-062] | < 0.2 |  |
| CC(C)[C@H](NC(=O)[C@H](C)NC(=O)[C@H](Cc1cccc2ccccc12)NC(=O)c1cccc2ccccc12)C(=O)C(=O)NCC(=O)N1CCN(C)CC1 [PVA-138] | < 0.2 |  |
| CC(C)C(NC(=O)[C@H](C)NC(=O)[C@H](Cc1ccccc1)NC(=O)c1ccccc1)C(=O)C(=O)NCc1cccnc1 (some centres unmarked) [PVA-024] | < 0.2 |  |
| CC(C)[C@H](NC(=O)[C@H](C)NC(=O)[C@@H](N1Cc2ccccc2C1=O)C(C)(C)C)C(=O)C(=O)NCc1ccc(N2CCN(C)CC2)nc1 [PVA-213] | < 0.02 |  |
| CC(C)[C@H](NC(=O)[C@H](C)NC(=O)[C@@H](NC(=O)c1ccncn1)C(C)(C)C)C(=O)C(=O)NC1CCCCC1 [PVA-082] | < 0.2 |  |
| CC(C)[C@H](NC(=O)[C@H](C)NC(=O)[C@@H](NC(=O)c1ccccc1)C(C)(C)C)C(=O)C(=O)N[C@H](C)C(=O)N1CCN(C)CC1 [PVA-125] | < 0.2 |  |
| COC(=O)c1cccc(CNC(=O)C(=O)[C@@H](NC(=O)[C@H](C)NC(=O)[C@H](Cc2ccccc2)NC(=O)c2ccccc2)C(C)C)c1 [PVA-080] | < 0.02 |  |
| CC(C)[C@H](NC(=O)[C@H](C)NC(=O)[C@H](Cc1ccccc1)NC(=O)c1ccccc1)C(=O)C(=O)NC1Cc2ccccc2C1 [PVA-103] | < 0.2 |  |
| CC(C)[C@H](NC(=O)[C@H](C)NC(=O)C1Cc2ccccc2N1C(=O)c1ccccc1)C(=O)C(=O)NCc1ccccc1 (some centres unmarked) [PVA-123] | < 0.2 |  |
| CC(C)[C@H](NC(=O)[C@H](C)NC(=O)[C@H](Cc1ccccc1)NC(=O)c1cccc2ccccc12)C(=O)C(=O)NCC(=O)N1CCN(C)CC1 [PVA-095] | < 0.2 |  |
| CC(C)C(NC(=O)[C@H](C)NC(=O)[C@H](Cc1ccccc1)NC(=O)c1ccccc1)C(=O)C(=O)NCCN1CCCC1 (some centres unmarked) [PVA-025] | < 2 |  |
| CC(C)[C@H](NC(=O)[C@H](C)NC(=O)[C@@H](N1Cc2ccccc2C1=O)C(C)(C)C)C(=O)C(=O)NCC(=O)N1CCc2ccccc2C1 [PVA-212] | < 0.02 |  |
| CC(C)[C@H](NC(=O)[C@H](C)NC(=O)[C@@H](NC(=O)c1cccc(OCc2nccn2C)c1)C(C)(C)C)C(=O)C(=O)NC1CCCCC1 [PVA-075] | < 0.2 |  |
| CC(C)[C@H](NC(=O)[C@H](C)NC(=O)[C@@H](NC(=O)c1ccc(OCc2nccn2C)cc1)C(C)(C)C)C(=O)C(=O)NC1CCCCC1 [PVA-077] | < 0.2 |  |
| CC(C)[C@H](NC(=O)[C@H](C)NC(=O)[C@H](Cc1ccccc1)NC(=O)c1ccncc1)C(=O)C(=O)NC1CCC1 [PVA-174] | < 0.2 |  |

| Structure (SMILES) | IC50 [1] [µM] | also measured |
| --- | --- | --- |
| CCCC[C@H](NC(=O)[C@H](C)NC(=O)[C@@H](NC(=O)c1ccncc1)C(C)(C)C)C(=O)C(=O)NC1CCCCC1 [PVA-039] | < 0.02 | IC50 (Table 1, read-out: Der p 1 IC50): 0.0063 µM |
| CC(C)[C@H](NC(=O)[C@H](C)NC(=O)[C@@H](NC(=O)c1ccccc1)C12CC3CC(CC(C3)C1)C2)C(=O)C(=O)NCC(=O)N1CCN(C)CC1 [PVA-146] |  | IC50 (Der p 1 IC50): < 0.02 µM |
| CC(C)[C@H](NC(=O)[C@H](C)NC(=O)[C@H](Cc1ccccc1)NC(=O)c1ccccc1)C(=O)C(=O)NCC(=O)N1CCCCC1 [PVA-067] |  | IC50 (Der p 1 IC50): < 0.02 µM |
| CC(C)[C@H](NC(=O)[C@H](C)NC(=O)[C@H](Cc1ccccc1)NC(=O)c1ccc(N2CCOCC2)nc1)C(=O)C(=O)NCc1ccccc1 [PVA-070] | < 2 |  |
| CC(C)[C@H](NC(=O)[C@H](C)NC(=O)[C@H](Cc1ccccc1)NC(=O)c1ccccc1)C(=O)C(=O)Nc1ccc(F)cc1 [PVA-011] | < 0.2 |  |
| Cc1cc(C(=O)N[C@H](C(=O)N[C@@H](C)C(=O)N[C@H](C(=O)C(=O)NC2CC2)C(C)C)C(C)(C)C)[nH]n1 [PVA-141] | < 0.2 |  |
| CC(C)[C@H](NC(=O)[C@H](C)NC(=O)[C@H](Cc1ccccc1)NC(=O)c1ccccc1)C(=O)C(=O)NCc1ccc2c(c1)OCO2 [PVA-041] | < 0.2 |  |
| CC(C)[C@H](NC(=O)[C@H](C)NC(=O)[C@H](Cc1ccccc1)NC(=O)c1ccccc1)C(=O)C(=O)NCCc1ccccc1 [PVA-010] | < 0.2 |  |
| CC(C)[C@H](NC(=O)[C@H](C)NC(=O)[C@H](Cc1ccccc1)NC(=O)c1ccccc1)C(=O)C(=O)NCC(=O)N1CCN(C(C)C)CC1 [PVA-092] |  | IC50 (Der p 1 IC50): < 0.02 µM |
| CC(C)[C@H](NC(=O)[C@H](C)NC(=O)[C@@H](NC(=O)c1ccccc1)C(C)(C)C)C(=O)C(=O)NC1CN2CCC1CC2 (some centres unmarked) [PVA-119] |  | IC50 (Der p 1 IC50): < 0.2 µM |
| CC(C)[C@H](NC(=O)[C@H](C)NC(=O)[C@@H](Cc1ccccc1)NC(=O)c1cccc(Oc2ccccc2)c1)C(=O)C(=O)NC1CCCCC1 [PVA-021] | < 2 |  |
| C[C@H](NC(=O)[C@H](Cc1ccccc1)NC(=O)c1ccccc1)C(=O)NCC(=O)C(=O)NCc1ccccc1 [PVA-102] | < 0.2 |  |
| CC(C)[C@H](NC(=O)[C@H](C)NC(=O)[C@@H](NC(=O)c1ccc(=O)[nH]c1)C(C)(C)C)C(=O)C(=O)NC1CCCCC1 [PVA-084] | < 0.2 |  |
| CC(C)[C@H](NC(=O)[C@H](C)NC(=O)[C@@H](NC(=O)c1ccnc2ccccc12)C12CC3CC(CC(C3)C1)C2)C(=O)C(=O)NCC(=O)N1CCN(C)CC1 [PVA-147] | < 0.02 |  |
| CC(C)[C@H](NC(=O)[C@H](C)NC(=O)[C@@H](NC(=O)c1ccccc1)C(C)(C)C)C(=O)C(=O)NCC(=O)N1CCN(C)CC1 [PVA-055] |  | IC50 (Der p 1 IC50): < 0.02 µM |
| CC(=O)Nc1ccc(C(=O)N[C@H](C(=O)N[C@@H](C)C(=O)N[C@H](C(=O)C(=O)NC2CCCCC2)C(C)C)C(C)(C)C)cn1 [PVA-061] | < 0.2 |  |

More lines, main results first:

| IC50 [1] [µM] | Structure (SMILES) | also measured |
| --- | --- | --- |
| < 0.2 | CC(C)[C@H](NC(=O)[C@H](C)NC(=O)[C@@H](NC(=O)c1ccccc1)C(C)(C)C)C(=O)C(=O)NC1CCC1 [PVA-203] |  |
| < 0.02 | CC(C)[C@H](NC(=O)[C@H](C)NC(=O)[C@@H](NC(=O)c1ccccc1)C(C)(C)C)C(=O)C(=O)NCc1ccc(C#N)cc1 [PVA-192] |  |
| < 0.02 | CC(C)[C@H](NC(=O)[C@H](C)NC(=O)[C@@H](NC(=O)c1cncc2ccccc12)C(C)(C)C)C(=O)C(=O)NC1CCCCC1 [PVA-073] |  |
| < 0.02 | CC(C)[C@H](NC(=O)[C@H](C)NC(=O)[C@@H](NC(=O)c1ccccc1)C(C)(C)C)C(=O)C(=O)NCc1ccc(N2CCN(C)CC2)cc1 [PVA-162] |  |
| < 0.02 | CC(C)[C@H](NC(=O)[C@H](C)NC(=O)[C@@H](NC(=O)c1ccccc1S(C)(=O)=O)C(C)(C)C)C(=O)C(=O)NCc1ccccc1 [PVA-108] |  |
| < 0.02 | CC(C)[C@H](NC(=O)[C@H](C)NC(=O)[C@@H](NC(=O)c1ccnc2ccccc12)C(C)(C)C)C(=O)C(=O)NC1CCCCC1 [PVA-071] |  |
| < 0.2 | Cc1cc(CNC(=O)C(=O)[C@@H](NC(=O)[C@H](C)NC(=O)[C@@H](NC(=O)c2ccccc2)C(C)(C)C)C(C)C)no1 [PVA-126] |  |
| < 0.2 | CC(C)[C@H](NC(=O)[C@H](C)NC(=O)[C@@H](NC(=O)c1ccccc1Oc1ccccc1)C(C)(C)C)C(=O)C(=O)NCc1ccccc1 [PVA-106] |  |
| < 0.02 | CC(C)[C@H](NC(=O)[C@H](C)NC(=O)[C@@H](NC(=O)c1ccccc1)C(C)(C)C)C(=O)C(=O)NCc1ccc(N2CCN(C)CC2)nc1 [PVA-195] |  |
| < 0.2 | Cc1n[nH]c(C)c1C(=O)N[C@H](C(=O)N[C@@H](C)C(=O)N[C@H](C(=O)C(=O)NCc1ccccc1)C(C)C)C(C)(C)C [PVA-115] |  |
| < 0.02 | CC(C)[C@H](NC(=O)[C@H](C)NC(=O)[C@@H](NC(=O)c1cccc(Cl)c1)C(C)(C)C)C(=O)C(=O)NCc1ccccc1 [PVA-183] |  |
| < 0.2 | CC(=O)Nc1cc(C(=O)N[C@@H](Cc2ccccc2)C(=O)N[C@@H](C)C(=O)N[C@H](C(=O)C(=O)NCc2ccccc2)C(C)C)ccn1 [PVA-060] |  |
| < 0.2 | CC(C)[C@H](NC(=O)[C@H](C)NC(=O)[C@@H](NC(=O)c1cccc2ccccc12)C(C)(C)C)C(=O)C(=O)NCc1ccccc1 [PVA-056] |  |
| < 0.02 | CC(C)[C@H](NC(=O)[C@H](C)NC(=O)[C@@H](NC(=O)c1cccc2nc[nH]c12)C(C)(C)C)C(=O)C(=O)NCc1ccccc1 [PVA-157] |  |
| < 0.02 | CC(C)[C@H](NC(=O)[C@H](C)NC(=O)[C@@H](Cc1ccccc1)NC(=O)c1ccncc1)C(=O)C(=O)NCc1ccccc1 [PVA-035] |  |
| < 0.02 | CC(C)[C@H](NC(=O)[C@H](C)NC(=O)[C@@H](NC(=O)c1ccnc2ccccc12)C(C)(C)C)C(=O)C(=O)NCc1ccc(C(N)=O)cc1 [PVA-188] |  |
| < 0.02 | CC(C)[C@H](NC(=O)[C@H](C)NC(=O)[C@H](Cc1ccccc1)NC(=O)c1ccncc1)C(=O)C(=O)NCc1ccc(S(N)(=O)=O)cc1 [PVA-161] |  |
| < 0.2 | CC(C)[C@H](NC(=O)[C@H](C)NC(=O)[C@@H](NC(=O)N1CCN(C)CC1)C(C)(C)C)C(=O)C(=O)NCc1ccccc1 [PVA-122] |  |
| < 0.2 | CC(=O)Nc1ccc(C(=O)N[C@H](C(=O)N[C@@H](C)C(=O)N[C@H](C(=O)C(=O)NCc2ccccc2)C(C)C)C(C)(C)C)cn1 [PVA-063] |  |
| < 0.2 | CC(C)[C@H](NC(=O)[C@H](C)NC(=O)[C@@H](NC(=O)c1ccccc1)C(C)(C)c1ccccc1)C(=O)C(=O)NCc1ccccc1 [PVA-121] |  |
| < 0.2 | CC(C)[C@H](NC(=O)[C@H](C)NC(=O)[C@@H](NC(=O)c1ccc2ncsc2c1)C(C)(C)C)C(=O)C(=O)NCc1ccccc1 [PVA-057] |  |
| < 2 | CC(C)[C@H](NC(=O)[C@H](C)NC(=O)[C@@H](Cc1cccc2ccccc12)NC(=O)c1ccccc1)C(=O)C(=O)NCc1ccccc1 [PVA-034] |  |
| < 0.2 | COc1ccc(CNC(=O)C(=O)[C@@H](NC(=O)[C@H](C)NC(=O)[C@H](Cc2ccccc2)NC(=O)c2ccncc2)C(C)C)cc1 [PVA-159] |  |
